From publication PMC10714743, “TrCla4 promotes actin polymerization at the hyphal tip and mycelial growth in Trichophyton rubrum” (Microbiology Spectrum, 2023)

Tests used:
TrCla4 [1] = target: T1, TrCla4 (Trichophyton rubrum, UniProt F2SMN8); assay: Kinase-Glo ATP consumption assay of immunoprecipitated 3xHA-TrCla4 with recombinant TrRac; assay type: biochemical
T1 construct: gene TERG_04196; 3xHA-TrCla4 immunoprecipitated from T. rubrum; with TrRac
T1 sequence (F2SMN8 1-888): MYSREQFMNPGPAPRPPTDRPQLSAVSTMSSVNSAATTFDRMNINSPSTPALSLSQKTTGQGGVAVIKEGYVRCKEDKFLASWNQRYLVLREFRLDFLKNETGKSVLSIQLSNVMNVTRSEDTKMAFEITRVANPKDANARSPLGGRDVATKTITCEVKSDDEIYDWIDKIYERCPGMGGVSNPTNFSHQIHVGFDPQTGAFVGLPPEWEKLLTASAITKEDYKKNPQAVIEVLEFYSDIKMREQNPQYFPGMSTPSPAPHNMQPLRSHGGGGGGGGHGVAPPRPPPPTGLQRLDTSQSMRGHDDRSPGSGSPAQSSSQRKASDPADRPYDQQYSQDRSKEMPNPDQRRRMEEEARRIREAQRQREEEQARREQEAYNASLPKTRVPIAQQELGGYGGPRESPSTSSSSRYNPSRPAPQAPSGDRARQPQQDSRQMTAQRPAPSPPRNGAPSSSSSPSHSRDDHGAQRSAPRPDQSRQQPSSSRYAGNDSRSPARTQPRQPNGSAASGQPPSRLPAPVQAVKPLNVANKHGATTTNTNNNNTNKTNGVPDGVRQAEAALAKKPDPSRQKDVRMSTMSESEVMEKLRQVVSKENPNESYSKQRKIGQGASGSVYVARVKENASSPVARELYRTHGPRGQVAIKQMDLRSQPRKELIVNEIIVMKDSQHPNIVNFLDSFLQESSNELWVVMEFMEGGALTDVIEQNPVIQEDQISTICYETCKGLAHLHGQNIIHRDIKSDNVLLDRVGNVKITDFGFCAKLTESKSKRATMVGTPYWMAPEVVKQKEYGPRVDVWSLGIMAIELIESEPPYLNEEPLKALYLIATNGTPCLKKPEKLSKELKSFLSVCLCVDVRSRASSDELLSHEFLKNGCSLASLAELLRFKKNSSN

TrCla4 [2] = target: T2, TrCla4 (Trichophyton rubrum, UniProt F2SMN8); assay: pull-down of purified GTPγS-TrRac by Tf-TrCla4 with IPA-3; also Kinase-Glo assay of immunoprecipitated 3xHA-TrCla4; assay type: biochemical
T2 construct: gene TERG_04196; His-, Tf- and Flag-tagged TrCla4 (E. coli BL21 lysate, Ni NTA pull-down); also immunoprecipitated 3xHA-TrCla4

Row | Compound | Kinase-Glo ATP consumption assay of immunoprecipitated 3xHA-TrCla4 with recombin (TrCla4 [1]) | IC50 (TrCla4 [2])
1 | CCn1c(=O)c(-c2ccc(Cl)cc2Cl)cc2cnc(Nc3ccc(N4CCNCC4)c(F)c3)nc21 [FRAX486] | Both FRAX486 and IPA-3 inhibited the TrRac-dependent ATPase activity of 3xHA-TrCla4 (Fig. 5D). | 
2 | Oc1ccc2ccccc2c1SSc1c(O)ccc2ccccc12 [IPA-3] |  | 2300 nM
